Converted amounts (≈) assume the structure as drawn. Where a name gives a salt, the structure may show the parent alone. Read-outs that look alike come from different tables or passages of the source.
Key:
MRSA = experiment: MIC by broth microdilution, MRSA isolates; assay type: cell-based; conditions: Staphylococcus aureus, MRSA, Table 1 (Example 3)
E coli wild type = experiment: MIC by broth microdilution, wild type E coli; assay type: cell-based; conditions: for MIC: Escherichia coli; for antibacterial activity, in words: MRSA and E coli, compared with the parent compound
P aeruginosa = experiment: MIC by broth microdilution, P aeruginosa isolates; assay type: cell-based, Pseudomonas aeruginosa; conditions: strain AG220 Pseudomonas aeruginosa ATCC27853; read-out: MIC AG220 P. aerugin
[1] = system: E coli carrying specific resistance determinants; experiment: MIC by broth microdilution, E coli carrying specific resistance determinants; assay type: cell-based; conditions: for MIC: Escherichia coli
M. abscessus = experiment: MIC by broth microdilution, M. abscessus; assay type: cell-based; conditions: Mycobacteroides abscessus
[2] = system: wild type bacterial ribosomes; experiment: in-vitro translation assay, bacterial ribosomes; assay type: biochemical; conditions: for IC50: bacterial ribosome, Table 4 (Example 3), read-out: IC50 Bac; for selectivity for the bacterial ribosome over mitochondrial (wild type, A1555G mutant) and cytosolic ribosomes, in words: compared with the parent compound
Excerpt: (§1) The antiribosomal activity of these compounds was investigated with cell-free translation assays using both wild type bacterial ribosomes and hybrid ribosomes carrying eukaryotic decoding A sites enabling the prediction of selectivity.

[3] = system: A1555G mutant mitochondrial ribosome (human chimeric); experiment: in-vitro translation assay, human chimeric ribosomes, A1555G mutant mitochondrial decoding site; assay type: biochemical; conditions: Table 3 (Example 3)
Excerpt: as §1

[4] = system: cytosolic ribosome (human chimeric); assay type: biochemical; conditions: for Selectivity for Binding to the Bacterial Ribosome over the Cytosolic Ribosome: Table 3 (Example 3); for IC50: cytosolic, Table 4 (Example 3), read-out: IC50 Cyt
Excerpt: as §1

[5] = system: mitochondrial ribosome (human chimeric); assay type: biochemical; conditions: for Selectivity for Binding to the Bacterial Ribosome over the Mitochondrial Ribosome: Table 3 (Example 3); for IC50: mitochondrial, Table 4 (Example 3), read-out: IC50 Mit
Excerpt: as §1

[6] = system: Klebsiella pneumonia AG215; experiment: MIC by broth microdilution, Klebsiella pneumonia; assay type: cell-based; conditions: Klebsiella pneumoniae; strain AG215 Klebsiella pneumonia; read-out: MIC AG215 K. pneumon
[7] = system: Acinetobacter baumannii pittii AG225; experiment: MIC by broth microdilution, Acinetobacter baumannii; assay type: cell-based; conditions: strain AG225 Acinetobacter baumannii pittii
[8] = system: Enterobacter cloacae AG290; experiment: MIC by broth microdilution, Enterobacter cloacae; assay type: cell-based; conditions: strain AG290 Enterobacter cloacae; read-out: MIC AG290 E. cloacae
N. gonorrhoeae = experiment: Disk diffusion, N. gonorrhoeae; assay type: cell-based; conditions: Neisseria gonorrhoeae
[9] = Casinelli et al., J Antibiotics 1978, 31, 378 and 382; cited from earlier work
M. smegmatis SZ380 = experiment: MIC by broth microdilution, M. smegmatis; conditions: Mycolicibacterium smegmatis
[10] = clinical isolate AG038, read-out: MIC MRSA AG038
[11] = clinical isolate AG039, read-out: MIC MRSA AG039
[12] = clinical isolate AG042, read-out: MIC MRSA AG042
[13] = clinical isolate AG044, read-out: MIC MRSA AG044
[14] = ATCC25922, strain AG212 E. coli (ATCC25922), read-out: MIC AG212 E. coli
[15] = WT, Table 4 (Example 3), read-out: MIC E. coli WT
[16] = WT, Table 5 (Example 3), read-out: MIC E. coli WT
[17] = clinical isolate AG001, Table 1 (Example 3), read-out: MIC E coli AG001
[18] = clinical isolate AG003, Table 1 (Example 3), read-out: MIC E coli AG003
[19] = clinical isolate AG055, Table 1 (Example 3), read-out: MIC E coli AG055
[20] = read-out: MIC E. coli AAC(2′) AG106
[21] = read-out: MIC E. coli AAC(2′) pH434
[22] = read-out: MIC E. coli pGB2armA armA
[23] = read-out: MIC E. coli pH434 AAC(2′)-Ib
[24] = ATCC19977, ATCC 19977 WT, Table 5 (Example 3), read-out: MIC M. abscessus ATCC 19977 WT
[25] = read-out: MIC M. abscessus engineered Δeis2
[26] = ATCC, Table 4 (Example 3), read-out: MIC M. abscessus ATCC
[27] = Clin. Isol., Table 4 (Example 3), read-out: MIC M. abscessus Clin. Isol.
[28] = SZ380, read-out: MIC M. smegmatis SZ380 WT, SZ380 WT, Table 5 (Example 3)
[29] = SZ380, read-out: MIC SZ380 M. smegmatis, strain SZ380 Mycobacterium smegmatis
[30] = AG006 Wild type, Table 2 (Example 3), read-out: MIC E coli AG006 Wild type
[31] = AG104 Wild type, Table 2 (Example 3), read-out: MIC E coli AG104 Wild type
[32] = read-out: MIC E coli AG106 AAC(2′)
[33] = read-out: MIC E. coli AG106 AAC(2′)-Ia

Row | SMILES | MIC (MRSA; [10]) [µg/mL] | MIC (MRSA; [11]) [µg/mL] | MIC (MRSA; [12]) [µg/mL] | MIC (E coli wild type; [14]) [µg/mL] | MIC (E coli wild type; [15]) [µg/mL] | MIC (E coli wild type; [16]) [µg/mL] | MIC (E coli wild type; [17]) [µg/mL] | MIC (E coli wild type; [18]) [µg/mL] | MIC (E coli wild type; [19]) [µg/mL] | MIC (P aeruginosa) [µg/mL] | MIC [1, 20] [µg/mL] | MIC [1, 21] [µg/mL] | MIC [1, 22] [µg/mL] | MIC [1, 23] [µg/mL] | MIC (M. abscessus; [24]) [µg/mL] | MIC (M. abscessus; [25]) [µg/mL] | MIC (M. abscessus; [26]) [µg/mL] | MIC (M. abscessus; [27]) [µg/mL] | IC50 [2] [µM] | selectivity for the bacterial ribosome over mitochondrial (wild type, A1555G mutant) and cytosolic ribosomes, in words [2] | also measured
1 | CCNC1C(OC2C(N)CC(N)C(O)C2OC2OC(CO)C(OC3OC(CN)C(O)C(O)C3N)C2O)OC(CO)C(O)C1O (centres unmarked) [Compound 127] | 8 (≈ 12.4 µM) | > 128 | > 128 | 4 (≈ 6.21 µM) | 2 (≈ 3.11 µM) | 2 (≈ 3.11 µM) | 16 (≈ 24.9 µM) | 16 (≈ 24.9 µM) | 16 (≈ 24.9 µM) | > 64 | 2 (≈ 3.11 µM) | 4 (≈ 6.21 µM) | 4 to 8 (≈ 6.21 to 12.4 µM) | 4 (≈ 6.21 µM) | 32 (≈ 49.7 µM) | 0.5 (≈ 0.777 µM) | 32 (≈ 49.7 µM) | 64 (≈ 99.4 µM) | 0.03 | increased selectivity for the bacterial ribosome | MIC (MRSA; [13]): 4 to 8 µg/mL (≈ 6.21 to 12.4 µM); Selectivity for Binding to the Bacterial Ribosome over the Mutant Mitochondrial Ribosome [3]: 1804; Selectivity for Binding to the Bacterial Ribosome over the Cytosolic Ribosome [4]: 918; IC50 [4]: 28 µM; Selectivity for Binding to the Bacterial Ribosome over the Mitochondrial Ribosome [5]: 4715; IC50 [5]: 141 µM; MIC [6]: 2 µg/mL (≈ 3.11 µM); MIC [7]: 4 µg/mL (≈ 6.21 µM); MIC [8]: 2 to 4 µg/mL (≈ 3.11 to 6.21 µM); zone of inhibition at 25 nmol/disc (N. gonorrhoeae): 9 mm; antibiotic potency compared with the parent compounds, in words [9]: comparable antibiotic potency to the parent compounds; MIC (M. smegmatis SZ380; [28]): 4 µg/mL (≈ 6.21 µM); MIC (M. smegmatis SZ380; [29]): 4 µg/mL (≈ 6.21 µM)
2 | NCC1OC(OC2C(N)CC(N)C(O)C2OC2OC(CO)C(OC3OC(CN)C(O)C(O)C3N)C2O)CC(O)C1O (centres unmarked) [Compound 173, 2′-Deamino-neomycin acetate salt] | 1 | 32 | 32 | 1 | 1 | 1 | 2 | 1 to 2 | 2 | > 64 | 1 | 8 | 1 | 8 | 4 | 0.125 | 4 | 8 | 0.03 | increased selectivity for the bacterial ribosome | MIC (E coli wild type; [30]): 1 µg/mL; MIC (E coli wild type; [31]): 0.5 to 1 µg/mL; antibacterial activity, in words (E coli wild type): little to no loss of antibacterial activity; effect of the AAC(2′) resistance determinant, in words [1]: overcomes the effect of AAC(2′); MIC [1, 32]: 1 µg/mL; MIC [1, 33]: 1 µg/mL; Selectivity for Binding to the Bacterial Ribosome over the Mutant Mitochondrial Ribosome [3]: 31; Selectivity for Binding to the Bacterial Ribosome over the Cytosolic Ribosome [4]: 3188; IC50 [4]: 85 µM; Selectivity for Binding to the Bacterial Ribosome over the Mitochondrial Ribosome [5]: 831; IC50 [5]: 22 µM; MIC [6]: 0.5 µg/mL; MIC [7]: 1 µg/mL; MIC [8]: 1 µg/mL; zone of inhibition at 25 nmol/disc (N. gonorrhoeae): 10 mm; MIC (M. smegmatis SZ380; [28]): 0.25 µg/mL; MIC (M. smegmatis SZ380; [29]): 0.25 µg/mL
3 | CCCNC1C(OC2C(N)CC(N)C(O)C2OC2OC(CO)C(OC3OC(CN)C(O)C(O)C3N)C2O)OC(CO)C(O)C1O (centres unmarked) [Compound 128, 2′-N-Propyl-paromomycin acetate salt] | 8 to 16 | > 128 | > 128 | 4 | 2 | 2 | 16 | 16 | 16 | > 64 | 2 | 4 | 4 to 8 | 4 | 32 | 1 | 32 | 64 | 0.05 | increased selectivity for the bacterial ribosome | MIC (MRSA; [13]): 4 µg/mL; Selectivity for Binding to the Bacterial Ribosome over the Mutant Mitochondrial Ribosome [3]: 763; Selectivity for Binding to the Bacterial Ribosome over the Cytosolic Ribosome [4]: 425; IC50 [4]: 21 µM; Selectivity for Binding to the Bacterial Ribosome over the Mitochondrial Ribosome [5]: 3066; IC50 [5]: 153 µM; MIC [6]: 2 µg/mL; MIC [7]: 4 µg/mL; MIC [8]: 2 µg/mL; zone of inhibition at 25 nmol/disc (N. gonorrhoeae): 11 mm; MIC (M. smegmatis SZ380; [28]): 2 µg/mL; MIC (M. smegmatis SZ380; [29]): 2 µg/mL
4 | NCC1OC(OC2C(CO)OC(OC3C(O)C(N)CC(N)C3OC3OC(CN)C(O)C(O)C3O)C2O)C(N)C(O)C1O (centres unmarked) [Compound 119] | 2 (≈ 3.25 µM) | > 128 | > 128 | 1 (≈ 1.62 µM) | 0.5 to 1 (≈ 0.812 to 1.62 µM) | 0.5 to 1 (≈ 0.812 to 1.62 µM) | 2 to 4 (≈ 3.25 to 6.5 µM) | 2 to 4 (≈ 3.25 to 6.5 µM) | 2 to 4 (≈ 3.25 to 6.5 µM) | > 64 | 1 (≈ 1.62 µM) | 4 (≈ 6.5 µM) | 1 (≈ 1.62 µM) | 4 (≈ 6.5 µM) | 2 (≈ 3.25 µM) | 0.125 (≈ 0.203 µM) | 2 (≈ 3.25 µM) | 4 (≈ 6.5 µM) | 0.03 | increased selectivity for the bacterial ribosome | MIC (MRSA; [13]): 2 µg/mL (≈ 3.25 µM); MIC (E coli wild type; [30]): 0.5 µg/mL (≈ 0.812 µM); MIC (E coli wild type; [31]): 1 µg/mL (≈ 1.62 µM); antibacterial activity, in words (E coli wild type): little to no loss of antibacterial activity; effect of the AAC(2′) resistance determinant, in words [1]: overcomes the effect of AAC(2′); MIC [1, 32]: 1 µg/mL (≈ 1.62 µM); MIC [1, 33]: 1 µg/mL (≈ 1.62 µM); Selectivity for Binding to the Bacterial Ribosome over the Mutant Mitochondrial Ribosome [3]: 94; Selectivity for Binding to the Bacterial Ribosome over the Cytosolic Ribosome [4]: 3667; IC50 [4]: 108 µM; Selectivity for Binding to the Bacterial Ribosome over the Mitochondrial Ribosome [5]: 1222; IC50 [5]: 36 µM; MIC [6]: 0.5 µg/mL (≈ 0.812 µM); MIC [7]: 1 µg/mL (≈ 1.62 µM); MIC [8]: 1 µg/mL (≈ 1.62 µM); antibiotic potency compared with the parent compounds, in words [9]: comparable antibiotic potency to the parent compounds; MIC (M. smegmatis SZ380; [28]): 0.5 µg/mL (≈ 0.812 µM); MIC (M. smegmatis SZ380; [29]): 0.5 µg/mL (≈ 0.812 µM)

Source: patent publication US11466044B2 (WAYNE STATE UNIVERSITY, priority 2017, dated 2022)
